Article PMC12155096 (International Journal of Molecular Sciences, 2025)
Read-outs that look alike come from different tables or passages of the source.

Experiments:
[1] = biological target: Photinus pyralis (firefly) luciferase (Photinus pyralis, UniProt P08659); assay: biochemical; assay type: biochemical; design: Luciferase Efficacy: unit not given here
human CYP2C9 [2] = biological target: T1, human CYP2C9 (Homo sapiens, UniProt P11712); settings: human
human CYP2C19 [3] = biological target: T2, human CYP2C19 (Homo sapiens, UniProt P33261)
T2 sequence (P33261 whole entry): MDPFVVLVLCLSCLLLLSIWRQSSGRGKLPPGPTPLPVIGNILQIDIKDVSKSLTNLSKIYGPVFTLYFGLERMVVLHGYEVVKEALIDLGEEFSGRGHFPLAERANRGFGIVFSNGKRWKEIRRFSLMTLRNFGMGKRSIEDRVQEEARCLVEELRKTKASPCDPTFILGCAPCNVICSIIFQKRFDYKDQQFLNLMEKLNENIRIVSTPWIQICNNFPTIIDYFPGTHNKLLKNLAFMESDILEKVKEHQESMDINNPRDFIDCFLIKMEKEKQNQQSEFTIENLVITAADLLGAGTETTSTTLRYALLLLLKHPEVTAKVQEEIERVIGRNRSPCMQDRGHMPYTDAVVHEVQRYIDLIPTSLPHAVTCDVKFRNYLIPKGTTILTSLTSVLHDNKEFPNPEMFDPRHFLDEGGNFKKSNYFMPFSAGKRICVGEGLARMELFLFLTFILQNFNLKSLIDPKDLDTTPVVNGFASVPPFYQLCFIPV

human CYP2D6 [4] = biological target: T3, human CYP2D6 (Homo sapiens, UniProt P10635); settings: human
T3 sequence (P10635 whole entry): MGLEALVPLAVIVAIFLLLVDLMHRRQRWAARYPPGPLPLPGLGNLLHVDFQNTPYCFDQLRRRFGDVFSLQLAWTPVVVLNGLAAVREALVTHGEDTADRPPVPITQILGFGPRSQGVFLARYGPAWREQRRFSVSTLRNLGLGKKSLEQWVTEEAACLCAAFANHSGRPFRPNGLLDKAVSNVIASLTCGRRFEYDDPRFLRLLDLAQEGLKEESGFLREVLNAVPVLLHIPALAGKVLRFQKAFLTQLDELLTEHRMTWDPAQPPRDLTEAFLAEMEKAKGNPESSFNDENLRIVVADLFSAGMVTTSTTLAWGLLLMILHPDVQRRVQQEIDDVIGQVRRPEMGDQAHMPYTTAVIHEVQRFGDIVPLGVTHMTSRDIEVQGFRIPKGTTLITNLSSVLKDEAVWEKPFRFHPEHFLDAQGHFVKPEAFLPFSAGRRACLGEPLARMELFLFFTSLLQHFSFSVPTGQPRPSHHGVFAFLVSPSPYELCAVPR

CYP3A4 [5] = biological target: T4, CYP3A4 (Homo sapiens, UniProt P08684)
T4 sequence (P08684 whole entry): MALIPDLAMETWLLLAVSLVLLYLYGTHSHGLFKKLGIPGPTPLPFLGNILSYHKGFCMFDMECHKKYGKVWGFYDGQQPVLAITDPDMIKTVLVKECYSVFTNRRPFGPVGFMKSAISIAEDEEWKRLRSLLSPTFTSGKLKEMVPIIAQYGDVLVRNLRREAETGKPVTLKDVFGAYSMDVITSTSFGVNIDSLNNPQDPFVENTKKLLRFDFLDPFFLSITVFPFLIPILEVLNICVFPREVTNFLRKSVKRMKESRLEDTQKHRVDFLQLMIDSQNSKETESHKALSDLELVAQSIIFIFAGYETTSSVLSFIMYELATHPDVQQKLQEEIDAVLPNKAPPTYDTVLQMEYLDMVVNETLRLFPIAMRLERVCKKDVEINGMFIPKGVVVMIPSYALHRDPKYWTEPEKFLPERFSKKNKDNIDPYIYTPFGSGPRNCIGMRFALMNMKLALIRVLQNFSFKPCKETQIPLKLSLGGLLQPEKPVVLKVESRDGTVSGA

human CYP2C9 [6] = biological target: T1, human CYP2C9; assay: biochemical
human CYP2C19 [7] = biological target: T2, human CYP2C19; assay: biochemical
human CYP2D6 [8] = biological target: T3, human CYP2D6; assay: biochemical
CYP3A4 [9] = biological target: T4, CYP3A4; assay: biochemical
human CYP1A2 [10] = biological target: T5, human CYP1A2 (Homo sapiens, UniProt P05177); assay: biochemical
T5 sequence (P05177 1-516): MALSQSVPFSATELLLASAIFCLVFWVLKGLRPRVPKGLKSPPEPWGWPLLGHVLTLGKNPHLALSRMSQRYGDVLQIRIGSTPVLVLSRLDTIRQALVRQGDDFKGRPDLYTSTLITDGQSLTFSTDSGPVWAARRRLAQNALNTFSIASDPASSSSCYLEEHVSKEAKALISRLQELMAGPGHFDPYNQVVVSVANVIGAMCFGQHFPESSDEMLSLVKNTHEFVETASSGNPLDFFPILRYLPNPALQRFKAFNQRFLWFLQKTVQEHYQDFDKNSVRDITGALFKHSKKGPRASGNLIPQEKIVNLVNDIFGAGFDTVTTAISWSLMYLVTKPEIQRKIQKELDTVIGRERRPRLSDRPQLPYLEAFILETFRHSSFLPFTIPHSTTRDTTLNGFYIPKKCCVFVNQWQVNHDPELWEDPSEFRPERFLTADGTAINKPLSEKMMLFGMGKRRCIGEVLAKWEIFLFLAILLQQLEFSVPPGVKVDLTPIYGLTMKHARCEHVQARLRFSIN

human CYP1A2 [11] = biological target: T5, human CYP1A2
[12] = CYP2C9 IC50 (half-maximal inhibitory concentration)
[13] = CYP2C19 IC50 (half-maximal inhibitory concentration)
[14] = CYP2D6 IC50 (half-maximal inhibitory concentration)
[15] = CYP3A4 IC50 (half-maximal inhibitory concentration)
[16] = CYP1A2 IC50 (half-maximal inhibitory concentration)

T1 sequence (P11712 whole entry): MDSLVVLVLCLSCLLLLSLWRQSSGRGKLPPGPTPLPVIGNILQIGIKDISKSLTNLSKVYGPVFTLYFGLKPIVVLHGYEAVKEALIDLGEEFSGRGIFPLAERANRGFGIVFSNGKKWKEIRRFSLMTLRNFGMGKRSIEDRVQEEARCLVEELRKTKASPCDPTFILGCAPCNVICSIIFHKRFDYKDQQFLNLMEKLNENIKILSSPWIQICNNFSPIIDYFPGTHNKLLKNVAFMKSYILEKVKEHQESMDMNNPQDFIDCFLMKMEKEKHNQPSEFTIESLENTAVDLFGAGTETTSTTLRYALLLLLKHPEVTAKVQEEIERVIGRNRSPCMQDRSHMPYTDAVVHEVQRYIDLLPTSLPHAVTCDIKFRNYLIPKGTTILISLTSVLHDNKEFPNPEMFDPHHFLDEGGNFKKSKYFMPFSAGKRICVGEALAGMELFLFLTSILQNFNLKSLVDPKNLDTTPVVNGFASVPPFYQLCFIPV
Photinus pyralis (firefly) luciferase, sequence (P08659 whole entry): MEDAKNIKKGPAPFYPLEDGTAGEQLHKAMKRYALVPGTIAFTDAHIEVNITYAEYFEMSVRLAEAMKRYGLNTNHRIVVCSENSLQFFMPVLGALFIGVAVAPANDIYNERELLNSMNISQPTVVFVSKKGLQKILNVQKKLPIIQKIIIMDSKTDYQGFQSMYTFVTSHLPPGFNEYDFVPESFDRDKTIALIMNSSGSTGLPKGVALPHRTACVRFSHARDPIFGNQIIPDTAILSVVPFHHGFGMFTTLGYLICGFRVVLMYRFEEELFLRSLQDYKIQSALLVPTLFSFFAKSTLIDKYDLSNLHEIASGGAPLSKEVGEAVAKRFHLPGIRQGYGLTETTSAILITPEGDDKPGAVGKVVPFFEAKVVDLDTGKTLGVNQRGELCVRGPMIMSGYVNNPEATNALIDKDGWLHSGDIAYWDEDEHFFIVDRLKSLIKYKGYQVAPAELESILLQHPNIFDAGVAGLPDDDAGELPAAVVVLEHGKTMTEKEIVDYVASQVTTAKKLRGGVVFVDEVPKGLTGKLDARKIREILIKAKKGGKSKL

| SMILES | Luciferase IC50 (half-maximal inhibitory concentration) [1] | IC50 (human CYP2C9 [6]; [12]) | IC50 (human CYP2C19 [7]; [13]) | IC50 (human CYP2D6 [8]; [14]) | IC50 (CYP3A4 [9]; [15]) | IC50 (human CYP1A2 [10]; CYP1A2 IC50) | IC50 (human CYP2C19 [7]; CYP2C19 IC50) | IC50 (CYP3A4 [9]; CYP3A4 IC50) | IC50 (human CYP2C9 [6]) | IC50 (human CYP2D6 [8]) | Luciferase IC50 [1] | IC50 (human CYP1A2 [10]; [16]) | other results |
| --- | --- | --- | --- | --- | --- | --- | --- | --- | --- | --- | --- | --- | --- |
| CC1(C)CCC(Cc2ccc(Cl)cc2)C1(O)Cn1cncn1 (stereo not shown) [Metconazole] | Inactive | 230 nM | 170 nM | 41.9 µM | 60 nM |  |  |  |  |  |  |  | CYP2C9 Efficacy (in parenthesis) (human CYP2C9 [2]): 0.23 ± 0.11 (-96 ± 19) %; CYP2C19 Efficacy (in parenthesis) (human CYP2C19 [3]; human): 0.17 ± 0.05 (-148 ± 4) %; CYP2D6 Efficacy (in parenthesis) (human CYP2D6 [4]): 41.91 ± 7.54 (-75 ± 4) %; CYP3A4 Efficacy (in parenthesis) (CYP3A4 [5]): 0.06 ± 0.04 (-85 ± 6) % |
| CC(C)Nc1ccc(Nc2ccccc2)cc1 [N-Isopropyl-N'-phenyl-p-phenylenediamine] |  |  |  |  |  | 35.5 µM | 4250 nM | 17300 nM |  |  |  |  | IC50 [1]: 34.2 µM; Luciferase Efficacy [1]: 34.17 ± 2.23 (-75 ± 7) %; IC50 (human CYP2C9 [6]; CYP2C9 IC50): 970 nM; IC50 (human CYP2D6 [8]; CYP2D6 IC50): 9.04 µM |
| COc1ccc(S(=O)(=O)N2C(=O)[C@@](c3ccccc3OC)(N3C[C@H](O)C[C@H]3C(=O)N(C)C)c3cc(Cl)ccc32)c(OC)c1 [Nelivaptan] | Inactive |  |  |  |  |  |  |  | 44500 ± 24600 nM | 55.1 ± 29.4 µM |  |  | CYP2D6 Efficacy (human CYP2D6 [4]; 1 h): 55.12 ± 29.45 (-53 ± 5) %; IC50 (human CYP1A2 [10]): 53.3 ± 25 µM; IC50 (human CYP2C19 [7]): 27600 ± 19500 nM; IC50 (CYP3A4 [9]): 70 ± 20 nM |
| O=c1[nH]c2ccccc2n1CCCN1CCN(C(c2ccccc2)c2ccccc2)CC1 [Oxatomide] |  |  |  |  |  |  | 33200 nM |  |  |  | Inactive |  | CYP1A2 IC50 (human CYP1A2 [11]): Inactive; CYP2C19 AC50 (half-maximal activity concentration) (human CYP2C19 [3]): Inconclusive inhibitor; CYP3A4 IC50 (CYP3A4 [5]): 1.39 ± 0.16 (164 ± 14) µM; AC50 (human CYP2C9 [6]; CYP2C9 AC50 (half-maximal activity concentration)): 25.3 µM; IC50 (human CYP2C9 [6]; CYP2C9 IC50): 25300 nM; AC50 (human CYP2D6 [8]; CYP2D6 AC50 (half-maximal activity concentration)): 620 nM; IC50 (human CYP2D6 [8]; CYP2D6 IC50): 0.62 µM; AC50 (CYP3A4 [9]; CYP3A4 AC50 (half-maximal activity concentration)): 1390 nM |
| CCOC(=O)C(SP(=S)(OC)OC)c1ccccc1 (stereo not shown) [Phenthoate] |  |  |  |  |  | 3.79 µM | 300 nM | 3330 nM | 1280 nM | 49.3 µM | Inactive |  |  |
| CCN(CC)c1nc(C)cc(OP(=S)(OC)OC)n1 [Pirimiphos-methyl] | Inactive |  | 190 nM |  | 2220 nM |  |  |  | 23600 nM | 53.3 µM |  | 1.49 µM |  |
| CCCN(CCOc1c(Cl)cc(Cl)cc1Cl)C(=O)n1ccnc1 [Prochloraz] | Inactive | 810 nM | 50 nM | 0.53 µM | 70 nM |  |  |  |  |  |  | 0.22 µM |  |
| C#CCOS(=O)OC1CCCCC1Oc1ccc(C(C)(C)C)cc1 (stereo not shown) [Propargite] | Inactive | 490 nM | 780 nM | 16 µM | 1870 nM |  |  |  |  |  |  | 7.75 µM |  |
| OC(Cc1ccccc1Cl)(Cn1nc[nH]c1=S)C1(Cl)CC1 (stereo not shown) [Prothioconazole] |  | 930 nM | 2550 nM | 47.5 µM | 8000 nM |  |  |  |  |  |  | 41.9 µM | IC50 [1]: 65.8 µM; Luciferase Efficacy [1]: 65.83 ± 4.46 (-26 ± 4) % |
| CCOP(=S)(OCC)Oc1cnc2ccccc2n1 [Quinalphos] |  |  |  |  |  | 2.25 µM | 470 nM | 4570 nM | 910 nM | 38.5 µM | Inactive |  |  |
| CC1(C)C2(Cl)C(Cl)C(Cl)C(Cl)(C(Cl)Cl)C1(Cl)C2Cl (stereo not shown) [Strobane] |  |  |  |  |  | 41.2 µM | 1590 nM | 820 nM |  |  | Inactive |  | IC50 (human CYP2C9 [6]; CYP2C9 IC50): 9890 nM; IC50 (human CYP2D6 [8]; CYP2D6 IC50): 44 µM |
| CCOP(=S)(Oc1cnc(C(C)(C)C)nc1)OC(C)C (stereo not shown) [Tebupirimfos] |  |  |  |  |  | 24 µM | 620 nM | 1500 nM | 1790 nM | 34.3 µM | Inactive |  |  |
| COC(=O)c1c(C(F)F)nc(C(F)(F)F)c(C2=NCCS2)c1CC(C)C [Thiazopyr] | Inactive | 34300 nM | 5430 nM | 54.3 µM | 1930 nM |  |  |  |  |  |  | 0.4 µM |  |
| CC(C)(C)C(=O)C(Oc1ccc(Cl)cc1)n1cncn1 (stereo not shown) [Triadimefon] | Inactive | 11300 nM | 1920 nM | 51.6 µM | 450 nM |  |  |  |  |  |  | 37 µM |  |
| C[C@H]1CCCC(=O)CCC/C=C/c2cc(O)cc(O)c2C(=O)O1 [Zearalenone] | Inactive |  | 16600 nM |  | 120 nM |  |  |  | 5740 nM | 46.5 µM |  | 25.3 µM |  |
